From ChEMBL document CHEMBL6096736, “Development of a Highly Selective Ferroptosis Inducer Targeting GPX4 with 2-Ethynylthiazole-4-carboxamide as Electrophilic Warhead” (J Med Chem, 2025)
Activity calls are given as the source filed them. The rule behind the calls is not given here.

Assays:
[1] = test system: HT-1080; test: Induction of ferroptosis in human HT-1080 cells assessed as reduction in cell viability incubated for 24 hrs in presence of Fer-1 by CCK-8 assay; conditions: HT-1080, 24 h
[2] = Acute toxicity in BALB/c mouse implanted with human HT-1080 cells assessed as change in AST level at 15 to 30 mg/kg, ip administered for 7 days; type: organism-based; conditions: in vivo, 168 h, dose 15-30 mg/kg, time 7 day
[3] = Clearance in male Sprague-Dawley rat at 20 mg/kg, po measured upto 36 hrs by LC-MS/MS analysis; type: ADME, organism-based; conditions: in vivo
[4] = Acute toxicity in BALB/c mouse implanted with human HT-1080 cells assessed as kidney damage at 15 to 30 mg/kg, ip administered for 7 days by H and E staining based analysis; type: organism-based; conditions: in vivo, 168 h, dose 15-30 mg/kg, time 7 day
[5] = Cmax in male Sprague-Dawley rat at 2 mg/kg, iv measured upto 36 hrs by LC-MS/MS analysis; type: ADME, organism-based; conditions: in vivo
[6] = Acute toxicity in BALB/c mouse implanted with human HT-1080 cells assessed as lung damage at 15 to 30 mg/kg, ip administered for 7 days by H and E staining based analysis; type: organism-based; conditions: in vivo, 168 h, dose 15-30 mg/kg, time 7 day
[7] = test system: HT-1080; test: Induction of ferroptosis in human HT-1080 cells assessed as increase in cellular MDA level at 0.1 uM incubated for 6 hrs; type: functional, cell-based
[8] = Acute toxicity in BALB/c mouse implanted with human HT-1080 cells assessed as change in ALT level at 15 to 30 mg/kg, ip administered for 7 days; type: organism-based; conditions: in vivo, 168 h, dose 15-30 mg/kg, time 7 day
[9] = Half life in male Sprague-Dawley rat at 20 mg/kg, po measured upto 36 hrs by LC-MS/MS analysis; type: ADME, organism-based; conditions: in vivo
[10] = Toxicity in BALB/c mouse implanted with human HT-1080 cells assessed as change in body weight at 15 to 30 mg/kg, ip administered for 6 days and measured after 2 weeks; type: organism-based; conditions: in vivo, 480 h, dose 15-30 mg/kg, time 20 day
[11] = Oral bioavailability in male Sprague-Dawley rat at 20 mg/kg measured upto 36 hrs by LC-MS/MS analysis; type: ADME, organism-based; conditions: in vivo
[12] = test system: HT-1080; test: Cytotoxicity against human HT-1080 cells assessed as cell viability incubated for 24 hrs by CCK-8 assay; conditions: HT-1080, 24 h
[13] = test system: HT-1080; test: Induction of ferroptosis in human HT-1080 cells assessed as increase in cellular ROS level at 0.1 uM incubated for 3 hrs by DCFH-DA staining based flow cytometry analysis; type: functional, cell-based
[14] = Acute toxicity in BALB/c mouse implanted with human HT-1080 cells assessed as change in UREA level at 15 to 30 mg/kg, ip administered for 7 days; type: organism-based; conditions: in vivo, 168 h, dose 15-30 mg/kg, time 7 day
[15] = test system: 4T1; test: Cytotoxicity against mouse 4T1 cells
[16] = Acute toxicity in BALB/c mouse implanted with human HT-1080 cells assessed as change in ALP level at 15 to 30 mg/kg, ip administered for 7 days; type: organism-based; conditions: in vivo, 168 h, dose 15-30 mg/kg, time 7 day
[17] = Acute toxicity in BALB/c mouse implanted with human HT-1080 cells assessed as heart damage at 15 to 30 mg/kg, ip administered for 7 days by H and E staining based analysis; type: organism-based; conditions: in vivo, 168 h, dose 15-30 mg/kg, time 7 day
[18] = test system: HT-1080; test: Antitumor activity against human HT-1080 cells xenografted in BALB/c mouse assessed as tumor growth inhibition at 30 mg/kg, ip administered for 6 days and measured after 2 weeks; type: functional; conditions: HT-1080, 480 h, time 20 day, read-out: TGI
[19] = Cmax in male Sprague-Dawley rat at 20 mg/kg, po measured upto 36 hrs by LC-MS/MS analysis; type: ADME, organism-based; conditions: in vivo
[20] = test system: HT-1080; test: Cytotoxicity against human HT-1080 cells in presence of Z-VAD-FMK
[21] = test system: HT-1080; test: Cytotoxicity against human HT-1080 cells assessed as cell survival incubated for 24 hrs in presence of DFO by CCK-8 assay; conditions: HT-1080, 24 h
[22] = AUC (0 to t) in male Sprague-Dawley rat at 2 mg/kg, iv measured upto 36 hrs by LC-MS/MS analysis; type: ADME, organism-based; conditions: in vivo
[23] = Half life in male Sprague-Dawley rat at 2 mg/kg, iv measured upto 36 hrs by LC-MS/MS analysis; type: ADME, organism-based; conditions: in vivo
[24] = test system: HT-1080; test: Antitumor activity against human HT-1080 cells xenografted in BALB/c mouse assessed as tumor growth inhibition at 15 mg/kg, ip administered for 6 days and measured after 2 weeks; type: functional; conditions: HT-1080, 480 h, time 20 day, read-out: TGI
[25] = test system: CAL-27; test: Cytotoxicity against human CAL-27 cells
[26] = Cytotoxicity against human LO2 cells; type: toxicity, cell-based, L02
[27] = test system: HT-1080; test: Cytotoxicity against human HT-1080 cells assessed as cell survival incubated for 24 hrs by CCK-8 assay; conditions: HT-1080, 24 h
[28] = Clearance in male Sprague-Dawley rat at 2 mg/kg, iv measured upto 36 hrs by LC-MS/MS analysis; type: ADME, organism-based; conditions: in vivo
[29] = AUC (0 to t) in male Sprague-Dawley rat at 20 mg/kg, po measured upto 36 hrs by LC-MS/MS analysis; type: ADME, organism-based; conditions: in vivo
[30] = test system: HT-1080; test: Induction of morphological changes in human HT-1080 cells assessed as […] of mitochondria cristas by TEM analysis; type: functional, cell-based
[31] = test system: HT-1080; test: Antitumor activity against human HT-1080 cells xenografted in BALB/c mouse assessed as reduction in tumor weight at 15 to 30 mg/kg, ip administered for 6 days and measured after 2 weeks; type: functional, organism-based; conditions: dose 15-30 mg/kg, time 20.0 day
[32] = test system: HT-1080; test: Induction of ferroptosis in human HT-1080 cells assessed as increase in cellular MDA level at 0.1 uM incubated for 6 hrs in presence of Fer-1; type: functional, cell-based
[33] = test system: HT-1080; test: Induction of morphological changes in human HT-1080 cells assessed as appearance of round shaped mitochondria by TEM analysis; type: functional, cell-based
[34] = test system: HT-1080; test: Induction of ferroptosis in human HT-1080 cells assessed as increase in cellular LPO level at 0.1 uM incubated for 3 hrs by BIODPY-C11 probe based flow cytometry analysis; type: functional, cell-based
[35] = Acute toxicity in BALB/c mouse implanted with human HT-1080 cells assessed as change in CREA level at 15 to 30 mg/kg, ip administered for 7 days; type: organism-based; conditions: in vivo, 168 h, dose 15-30 mg/kg, time 7 day
[36] = Acute toxicity in BALB/c mouse implanted with human HT-1080 cells assessed as liver damage at 15 to 30 mg/kg, ip administered for 7 days by H and E staining based analysis; type: organism-based; conditions: in vivo, 168 h, dose 15-30 mg/kg, time 7 day
[37] = test system: MCF7; test: Cytotoxicity against human MCF7 cells
[38] = Acute toxicity in BALB/c mouse implanted with human HT-1080 cells assessed as spleen damage at 15 to 30 mg/kg, ip administered for 7 days by H and E staining based analysis; type: organism-based; conditions: in vivo, 168 h, dose 15-30 mg/kg, time 7 day
[39] = test system: HepG2; test: Cytotoxicity against human HepG2 cells

C#Cc1nc(C(=O)N(c2ccc(-c3cnco3)cc2)[C@@H](C(=O)NC(C)(C)C)c2csc3ccccc23)cs1
IC50 [1]: 7480 nM | Activity [2]: Non-toxic | CL/F [3]: 5670 mL/min/kg | Activity [4]: Non-toxic | Cmax [5]: 271 ng/mL | Activity [6]: Non-toxic | Activity [7]: Active | Activity [8]: Non-toxic | half-life [9]: 2.37 h | Activity [10]: Non-toxic | bioavailability [11]: 6.67% | IC50 [12]: 3 nM | Activity [13]: Active | Activity [14]: Non-toxic | IC50 [15]: 89 nM | Activity [16]: Non-toxic | Activity [17]: Non-toxic | inhibition in vivo at 30 mg/kg [18]: 49.4% | Cmax [19]: 20.8 ng/mL | IC50 [20]: 0.2 nM | IC50 [21]: 3950 nM | AUC(0-t) at 36 h [22]: 122 ng·h/mL | half-life [23]: 1.05 h | inhibition in vivo at 15 mg/kg [24]: 36.5% | IC50 [25]: 2680 nM | IC50 [26]: 5140 nM | IC50 [27]: 22 nM | clearance [28]: 282 mL/min/kg | AUC(0-t) at 36 h [29]: 79.4 ng·h/mL | Activity [30]: Active | Activity [31]: Active | Activity [32]: Weak_effect | Activity [33]: Active | Activity [34]: Active | Activity [35]: Non-toxic | Activity [36]: Non-toxic | IC50 [37]: 451 nM | Activity [38]: Non-toxic | IC50 [39]: 56 nM
